Data taken from patent US9889092B2, “Low density lipoprotein nanocarriers for targeted delivery of omega-3 polyunsaturated fatty acids to cancer” (The Board of Regents of the University of Texas System, priority 2013, dated 2018).

Columns and labels:
[1] = Oxidative stability of LDL nanoparticles (peroxide value, HPLC DHA content); assay type: physicochemical; conditions: under air at 55° C. for 5 hrs
From the text: FIGS. 4A-D. Oxidative stability: (FIG. 4A) HPLC determination of DHA content in LDL nanoparticles and DHA in heptane; (**) p<0.01 DHA in heptane versus LDL-DHA, after 14 days; (***) p<0.001, DHA in heptane versus LDL-DHA, after 21 and 28 days. (FIG. 4B) Peroxide indices of LDL, DHA in heptane, and LDL-DHA nanoparticles. Samples from FIG. 4A and FIG. 4B were stored at ambient conditions and were subjected to HPLC or peroxide analysis at baseline, 7, 14, 21, and 28 days; (**) p<0.01, DHA in heptane versus LDL-DHA after 14 days; (***) p<0.001, LDL or DHA in heptane versus LDL-DHA after 21 and 28 days; (****) p<0.0001, LDL versus LDL-DHA, after 28 days. […] DHA content is expressed as a percentage of baseline control. The peroxide index is expressed as mEq of peroxide/Kg of lipid.
Oxidative stability of LDL nanoparticles. […] Absorbance of red color formed from the presence of ferric ion was measured at 500 nm using UV-visible spectrophotometer (UV 1800, Shimadzu, USA) and the concentration was determined using a calibration curve of ferric chloride (FeCl3). […] The peroxide value was calculated using the following formula: PV=[Fe3+]/(55.84×g of lipids×2) where 55.84 is the molecular weight of iron. Results were expressed as mEq peroxide/kg lipid.

TIB-75 cells = test: Cell toxicity assay (MTS), TIB-75; assay type: cell-based, mouse; conditions: 40 μM LDL-DHA with 100 or 200 μM Vitamin E, 72 hours
Procedure: Cell culture. The mouse liver cell line TIB-73 (BNL CL.2) and its malignant counterpart TIB-75 (BNL 1MEA.7R.1) were obtained from ATCC (Manassas, Va.) and cultured in Dulbeco's modified Eagle's medium (DMEM) supplemented with 10% fetal bovine serum (FBS). Cells were grown at 37° C. in an atmosphere of 5% CO2 in a humidified incubator.
Cell toxicity assay (MTS). Each cell type was seeded in 96-well plates (2×10^3 cells/well). After 48 hrs of culture, the cells received various concentrations of the LDL-DHA nanoparticles ranging from 0 to 100 μM (DHA). For controls (LDL-OA/TO) dosing went as high as 200 μM. At the end of the 72 hr treatment period, the cell viability was measured by the MTS assay as recommended by the manufacturer. In brief, 20 μL MTS solution was added to each well and cells were incubated at 37° C. for 4 hrs followed by absorbance readings at 490 nm. The relative cell viability is expressed as a percentage of the non treated controls.

| Molecule | oxidative stability in final stress test [1] | effect of co-incubation on LDL-DHA cytotoxicity in TIB-75 cells (TIB-75 cells) |
| --- | --- | --- |
| CC/C=C\C/C=C\C/C=C\C/C=C\C/C=C\C/C=C\CCC(=O)O [DHA in heptane, docosahexaenoic acid] | significant degradative peroxidation | – |
| vitamin E | – | effectively abrogate the cytotoxicity of LDL-DHA |
